The subject of data set [1] is RPE-specific Cib2^KO mice. Particulars: mouse, in vivo.
From the text: For comparison, untreated WT control mice (black squares) are replotted from FIG. 6b. c, Schematic of treatment paradigm in RPE-specific Cib2^KO injected with 9-cis retinal and control mice injected with vehicle. d. […] TEM micrographs for indicated genotype at the end of the treatment paradigm as outlined in c (n=3/genotype).
To further assess the potential clinical translatability of exogenous retinoids, we tested an extended treatment paradigm following injection of 9-cis retinal in RPE-specific Cib2^KO mice (FIG. 4c). […] To assess medium-term efficacy of exogenous retinoid therapy, we extended the paradigm further by one month.
Electroretinograms (ERG) were recorded as earlier described^14 with modifications. Mice, overnight dark-adapted, were anesthetized with ketamine-xylazine (100 mg/kg and 10 mg/kg, respectively) and pupils were dilated with 1% Tropicamide. A gold wire lens electrode was placed on the cornea, a platinum reference electrode in the mouth, and a ground electrode on the tail. To assess rod-driven responses, increasing scotopic stimuli were presented sequentially (0.003962233 to 3.147314 cd×s/m2) with 5-60 sec intervals using UTAS BigShot (LKC Technologies, Gaithersburg, MD). At least 3 waveforms per intensity were averaged. For cone function evaluation, photopic responses to a single bright flash (3.15 cd×s/m2) under a steady rod-suppressing field of cd×s/m2. Waves were analyzed using EM for Windows software (LKC Technologies).
The test system of data set [2] is RPE-specific Cib2^KO mice. The data set is described as follows: TEM analysis of the RPE at the conclusion of treatment. The settings on record: 9-cis retinal-treated RPE-specific Cib2^KO mice. The format is in vivo, mouse. The protocol:
FIG. 4. […] Scale bar. 2 μm.
Sections for EM were prepared as previously described 48. Briefly, hemisected eyecups were rinsed in buffer and postfixed in 2% osmium tetroxide and 1.5% potassium ferrocyanide in dH2O for 2 hr, dehydrated in a graded ethanol series, and embedded in Epon-Araldite (Electron Microscopy Sciences, Hatfield, PA). Semi-thin sections (4 μm) were cut and stained with 1% cresyl violet. Ultra-thin sections (90 nm) were cut on an ultramicrotome (Ultracut E 701704, Reichert-Jung, Buffalo, NY) using a diamond knife (Micro Star Technologies, Inc., Huntsville, TX), collected on copper grids, counterstained with 4% methanolic uranyl acetate (Electron Microscopy Sciences, Hatfield, PA), and outer retinal morphology examined using a transmission electron microscope (TEM; Model 300: Phillips, Eindhoven, The Netherlands). Photomicrographs were captured with a digital camera (15 megapixel digital camera, Scientific Instruments and Applications, Duluth, GA) and Maxim DL Version 5 software (Diffraction Limited, Ottawa, Canada).

A further data set concerns the target T1, TSC2 (Homo sapiens, UniProt P49815).
T1 construct: host or cells: COS-7
The data set is described as follows: NanoSPD (nanoTRAP) interaction assay in COS-7 cells, TSC2. The class given is binding. The settings on record: FLAG-tagged TSC2. From the text: (§1) FIG. 14. […] Arrowheads indicate filopodia tip accumulation of hCIB2-eGFP, * indicates no accumulation of indicted constructs in the red channel. c. Representative confocal images (top panel) showing CIB2 (green) interaction with Rheb (red) and Raptor (red) using NanoTRAP assay. […] Arrowheads indicate filopodia tip accumulation of indicated constructs, * indicates no accumulation of indicted construct in the red or far-red channel. Scale bar: 10 μm. d. Quantification for nanoTRAP assay for images shown above. *** p<0.001 by one-way ANOVA. e, Co-IP experiments show interaction between Raptor and CIB2.
(§2) To reveal the molecular mechanism of CIB2-mediated mTORC1 modulation, we focused on the TSC-Rheb-mTORC1 axis. We performed an interaction screen of specific proteins including TSC1, TSC2, mTORC1-specific subunit Raptor, mTOR kinase, and Rheb. We used a recently-published quantitative interaction assay known as nanoscale pulldown 2.0 (NanoSPD), in which eGFP-nanobody tag fused to the myosin-HMM domain (nanoTRAP) preferentially migrates to the filopodia (Bird et al., Molecular Biology of the Cell 28, 463-475 (2017)). CIB2-eGFP (bait) migrated efficiently to filopodia in COS-7 cells only in the presence of the nanoTRAP. […] Many downstream and upstream targets of mTORC1 regulate its activity via binding to the mTORC1-specific subunit Raptor. […]

Another data set deals with T2, TSC1 (Homo sapiens, UniProt Q92574).
T2 construct: host or cells: COS-7
T2 sequence (Q92574 1-1164): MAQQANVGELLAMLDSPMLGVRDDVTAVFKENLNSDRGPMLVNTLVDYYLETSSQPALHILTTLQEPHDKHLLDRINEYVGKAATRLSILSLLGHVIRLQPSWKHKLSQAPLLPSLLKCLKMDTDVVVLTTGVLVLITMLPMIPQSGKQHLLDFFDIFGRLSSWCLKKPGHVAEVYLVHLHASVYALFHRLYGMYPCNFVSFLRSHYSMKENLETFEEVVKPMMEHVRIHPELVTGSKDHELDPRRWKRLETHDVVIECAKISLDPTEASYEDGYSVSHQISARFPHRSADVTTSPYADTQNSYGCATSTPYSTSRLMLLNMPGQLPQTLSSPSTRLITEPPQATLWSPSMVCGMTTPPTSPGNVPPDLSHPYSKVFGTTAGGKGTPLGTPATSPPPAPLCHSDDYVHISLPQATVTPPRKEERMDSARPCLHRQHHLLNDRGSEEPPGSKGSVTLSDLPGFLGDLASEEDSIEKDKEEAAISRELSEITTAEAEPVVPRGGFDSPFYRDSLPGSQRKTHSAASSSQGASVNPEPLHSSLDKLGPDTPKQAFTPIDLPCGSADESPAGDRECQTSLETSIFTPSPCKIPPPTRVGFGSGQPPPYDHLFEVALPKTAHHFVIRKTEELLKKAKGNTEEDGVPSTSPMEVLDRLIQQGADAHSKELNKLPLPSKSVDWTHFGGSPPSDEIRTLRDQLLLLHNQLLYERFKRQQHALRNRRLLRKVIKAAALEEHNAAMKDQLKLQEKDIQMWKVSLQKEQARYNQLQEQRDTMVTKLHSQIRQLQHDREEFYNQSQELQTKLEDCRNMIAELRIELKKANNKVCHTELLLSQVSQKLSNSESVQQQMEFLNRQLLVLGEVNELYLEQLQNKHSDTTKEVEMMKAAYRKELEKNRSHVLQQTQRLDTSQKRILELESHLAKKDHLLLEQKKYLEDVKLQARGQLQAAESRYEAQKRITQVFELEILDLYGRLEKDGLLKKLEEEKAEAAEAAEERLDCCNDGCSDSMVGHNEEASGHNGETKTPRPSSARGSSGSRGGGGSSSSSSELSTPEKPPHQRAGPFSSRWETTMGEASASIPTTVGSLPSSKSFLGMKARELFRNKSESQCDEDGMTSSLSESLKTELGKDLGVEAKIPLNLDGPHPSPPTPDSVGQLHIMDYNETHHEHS
The data set is described as follows: NanoSPD (nanoTRAP) interaction assay in COS-7 cells, TSC1. The format is binding. Particulars: FLAG-tagged TSC1.
From the text: as §1, §2

The next data set concerns the target Rheb (Homo sapiens, UniProt Q15382). The data set is described as follows: Co-IP of tdTomato-CIB2 with HA-GST-Rheb and Rheb variants. The class given is binding. Details: host or cells: HEK293. Particulars: HEK293 lysates. The procedure:
FIG. 3. […] Note the stronger interaction between CIB2 and Rheb S20N variant as compared to Q64L variant (GDP vs GTP mimetic, respectively). c, CIB2 preferentially interacts with GDP-loaded Rheb is further confirmed by co-IP experiments of HA-GST-Rheb immobilized on […] and loaded with either GDP or GTPγS, followed by incubation with tdTomato-CIB2 lysate. d, Proposed model of CIB2 function in retinal sensory cells. […] Loss of CIB2 results in reduced autophagy and exacerbated mTORC1 signaling, thus leading to RPE pathology and secondary PR dysfunction. e, f Immunoblots from RPE/choroid lysates from dry AMD or control age-matched donors indicate reduced CIB2 expression, overactive mTORC1 and reduced autophagy, quantified in panel f. Unpaired two-tailed 1 test was used to determine statistical significance. p value of <0.05 (*), <0.01 (**), and <0.001 (***). Please note that one control sample (ψ) is outliner and is highly variant from the rest, Re-quantification, omitting the highly variant control sample, is shown in FIG. 15. g.
We tested the essentiality of nucleotide binding state of Rheb using co-IP assays. […] Next, we used the Q64L and […] Rheb variants, which mimic the GTP- and GDP-bound state, respectively. […]

Positions count from the first letter of the chain named.

Sequence of Rheb (Q15382 1-181): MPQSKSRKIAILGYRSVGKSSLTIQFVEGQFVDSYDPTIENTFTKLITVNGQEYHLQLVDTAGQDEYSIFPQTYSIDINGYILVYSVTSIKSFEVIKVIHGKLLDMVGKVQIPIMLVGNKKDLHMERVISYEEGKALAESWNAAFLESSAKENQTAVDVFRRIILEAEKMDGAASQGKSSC
T1 sequence (P49815 whole entry): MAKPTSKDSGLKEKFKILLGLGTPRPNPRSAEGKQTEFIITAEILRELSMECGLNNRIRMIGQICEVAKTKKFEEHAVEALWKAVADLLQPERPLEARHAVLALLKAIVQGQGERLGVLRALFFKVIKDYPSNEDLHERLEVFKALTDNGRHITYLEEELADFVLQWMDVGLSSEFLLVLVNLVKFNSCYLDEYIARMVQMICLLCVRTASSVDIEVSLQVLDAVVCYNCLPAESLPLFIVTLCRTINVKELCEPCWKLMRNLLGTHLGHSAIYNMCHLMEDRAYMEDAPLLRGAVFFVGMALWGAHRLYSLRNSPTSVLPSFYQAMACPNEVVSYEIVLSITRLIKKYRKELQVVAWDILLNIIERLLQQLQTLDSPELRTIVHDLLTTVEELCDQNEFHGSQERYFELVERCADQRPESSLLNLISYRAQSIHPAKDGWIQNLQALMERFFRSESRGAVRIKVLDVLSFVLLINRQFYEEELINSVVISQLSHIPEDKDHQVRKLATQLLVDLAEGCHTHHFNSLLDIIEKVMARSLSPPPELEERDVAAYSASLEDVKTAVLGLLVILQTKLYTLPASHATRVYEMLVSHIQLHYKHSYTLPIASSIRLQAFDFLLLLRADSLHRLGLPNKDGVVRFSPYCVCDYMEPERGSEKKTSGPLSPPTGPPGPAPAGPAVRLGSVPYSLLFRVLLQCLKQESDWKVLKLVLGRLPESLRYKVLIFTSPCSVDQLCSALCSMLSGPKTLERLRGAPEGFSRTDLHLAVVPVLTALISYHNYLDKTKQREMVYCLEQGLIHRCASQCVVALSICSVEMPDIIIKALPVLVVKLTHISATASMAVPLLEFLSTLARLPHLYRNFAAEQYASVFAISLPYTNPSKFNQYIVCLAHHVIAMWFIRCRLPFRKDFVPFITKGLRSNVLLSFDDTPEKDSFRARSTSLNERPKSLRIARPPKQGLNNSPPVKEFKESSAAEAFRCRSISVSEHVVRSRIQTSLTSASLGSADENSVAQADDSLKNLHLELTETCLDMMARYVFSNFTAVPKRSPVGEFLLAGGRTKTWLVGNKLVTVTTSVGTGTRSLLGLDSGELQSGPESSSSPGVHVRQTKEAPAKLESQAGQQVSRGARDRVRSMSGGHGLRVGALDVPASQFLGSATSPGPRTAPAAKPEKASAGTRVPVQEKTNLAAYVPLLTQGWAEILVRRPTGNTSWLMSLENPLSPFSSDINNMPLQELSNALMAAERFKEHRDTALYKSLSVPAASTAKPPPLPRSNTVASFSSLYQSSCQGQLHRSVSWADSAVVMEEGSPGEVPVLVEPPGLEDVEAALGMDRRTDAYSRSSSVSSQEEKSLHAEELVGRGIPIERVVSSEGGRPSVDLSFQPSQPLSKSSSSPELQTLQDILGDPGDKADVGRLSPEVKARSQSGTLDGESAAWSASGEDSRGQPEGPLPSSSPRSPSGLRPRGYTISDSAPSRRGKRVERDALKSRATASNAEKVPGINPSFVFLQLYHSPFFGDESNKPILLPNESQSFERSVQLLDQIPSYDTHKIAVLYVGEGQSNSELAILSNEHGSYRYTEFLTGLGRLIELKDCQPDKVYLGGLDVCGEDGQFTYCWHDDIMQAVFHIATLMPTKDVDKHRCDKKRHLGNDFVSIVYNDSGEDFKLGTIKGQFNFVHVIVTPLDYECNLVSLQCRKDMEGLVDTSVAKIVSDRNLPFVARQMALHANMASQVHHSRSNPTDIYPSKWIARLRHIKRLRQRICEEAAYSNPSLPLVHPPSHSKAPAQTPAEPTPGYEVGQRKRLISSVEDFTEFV

For the molecule `CC1=C(/C=C/C(C)=C\C=C\C(C)=C\C=O)C(C)(C)CCC1` [9-cis retinal], in data set [1], the “ERG amplitude differences between groups four weeks post-injection” value was “returned to their baseline levels”, the “ERG amplitudes after the treatment paradigm (overall)” value is reported as “temporarily but reproducibly improved ERG amplitudes”, the “ERG amplitudes four weeks after the 2nd injection” value is “diverged significantly” and the “ERG amplitudes two weeks after the 1st injection” value is listed as “indistinguishable from those of vehicle-injected RPE-Cre+ controls”. Further, the “ERG amplitudes two weeks after the 2nd injection” value in data set [1] is given as “no discernable inter-group differences”. The “Mice with vacuoles and/or sub-RPE drusen present in the RPE (TEM)” value in data set [2] is given as 3 of 3.

B1: CIB2-eGFP: eGFP-tagged human CIB2 used as bait in the NanoSPD assay (protein)
chain: MGNKQTIFTEEQLDNYQDCTFFNKKDILKLHSRFYELAPNLVPMDYRKSPIVHVPMSLIIQMPELRENPFKERIVAAFSEDGEGNLTFNDFVDMFSVLCESAPRELKANYAFKIYDFNTDNFICKEDLELTLARLTKSELDEEEVVLVCDKVIEEADLDGDGKLGFADFEDMIAKAPDFLSTFHIRI
modifications: left off: large carriers
notes: eGFP-tagged human CIB2 used as bait in the NanoSPD assay
Regarding B1, the “Co-accumulation with TSC2 (NanoSPD)” value with TSC2 was “did not show any co-accumulation”. Moreover, the “Co-accumulation with TSC1 (NanoSPD)” value with TSC1 is “did not show any co-accumulation”.

B2: tdTomato-CIB2: tdTomato tagged CIB2 expressed in HEK293 cells (tdTomato-C1-mCIB2 construct) (protein)
chain: B1 chain with S32A, A76E, L130M, D141E, E143D
modifications: left off: large carriers
As to B2, the “Co-immunoprecipitation with HA-GST-Rheb” value with Rheb was “co-immunoprecipitated with HA-GST-Rheb”.

The record behind these values is US12661385B2, “Modulation of mTORCI activity and autophagy via CIB2-RHEB interaction” (University of Maryland, Baltimore, priority 2018, dated 2026).
